Assay results published in patent US4996204A, “Pyrido[2,3-d]pyridazinones as aldose reductase inhibitors” (Pfizer Inc., priority 1989, dated 1991).

Molecular target: T1, partially purified aldose reductase enzyme obtained from human placenta (Homo sapiens, UniProt P15121)
T1 construct: partially purified aldose reductase enzyme obtained from human placenta; from tissue; host or cells: human placenta
Assay: inhibition of aldose reductase enzyme activity (procedure of S. Hayman et al. as modified by K. Sestanj et al.)
Type: biochemical
Settings: read-out: Percent Inhibition (%) of aldose reductase enzyme activity; for inhibition at 10 µM: 10^-5 M; for inhibition at 1 µM: 10^-6 M; for inhibition at 0.1 µM: 10^-7 M
Description: Hayman et al., as described in the Journal of Biological Chemistry, Vol. 240, p. 877 (1965) and as modified by K. Sestanj et al. in U.S. Pat. […] In every case, the substrate employed was partially purified aldose reductase enzyme obtained from human placenta.

Compound	inhibition at 10 µM [%]	inhibition at 1 µM [%]	inhibition at 0.1 µM [%]
O=C(O)Cc1nn(Cc2nc3cc(C(F)(F)F)ccc3s2)c(=O)c2cccnc12 [Example 15, 6-(5-trifluoromethylbenzothiazole-2-ylmethyl) -5-oxo-6H-pyrido[2,3-d]pyridazine-8-ylacetic acid]	88	81	74
O=C(O)Cc1nn(Cc2nc3cc(F)cc(F)c3s2)c(=O)c2cccnc12 [Example 17]	75	65	39
O=C(O)Cc1nn(Cc2cc3c(Cl)cccc3s2)c(=O)c2cccnc12 [Example 19, 6-(4-chlorobenzothiophene-2-ylmethyl)-5-oxo-6H-pyrido[2,3-d]pyridazine-8-ylacetic acid]	80	60	8
O=C(O)Cc1nn(Cc2noc(-c3ccccc3C(F)(F)F)n2)c(=O)c2cccnc12 [Example 20, 6-[5-(2-trifluoromethylphenyl)-1,2,4-oxadiazole-3-ylmethyl]-5-oxo-6H-pyrido[2,3-d]pyridazine-8-ylacetic acid]	77	72	43

Now from value to compound:

inhibition at 10 µM [%]	inhibition at 1 µM [%]	inhibition at 0.1 µM [%]	Compound
86	76	30	O=C(O)Cc1nn(Cc2ccc(Br)cc2F)c(=O)c2cccnc12 [Example 21, 6-(4-bromo-2-fluorobenzyl)-5-oxo-6H-pyrido[2,3-d]pyridazine-8-ylacetic acid]
93	87	31	O=C(O)Cc1nn(Cc2nc3cc(Br)ccc3o2)c(=O)c2cccnc12 [Example 18, 6-(5-bromobenzoxazole-2-ylmethyl)-5-oxo-6H-pyrido[2,3-d]pyridazine-8-ylacetic acid]
94	91	90	O=C(O)Cc1nn(Cc2nc3cc(F)ccc3s2)c(=O)c2cccnc12 [Example 16, 6-(5-fluorobenzothiazole-2-ylmethyl)-5-oxo-6H-pyrido[2,3-d]pyridazine-8-ylacetic acid]
